Test system: 156681-154-R-J1-PDC complex spheroid viability
Test: Anticancer human tumor 156681-154-R-J1-PDC patient-derived melanoma cell line growth inhibition [CLK]
Conditions: for IC50: curve of first compound; for viability, T/C: stronger effect = lower value
Procedure, shortened: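 Patient-derived tumor cells grown as complex spheroids with HUVEC endothelial cells and mesenchymal stem cells, treated with drug combinations. Concentrations descend in half-log steps from near clinical Cmax, or from 10 microM if Cmax unknown.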
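Also: spheroids exposed to the agents for seven days.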
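For viability, T/C in this document: 100% = DMSO vehicle control viability.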

Structure (SMILES): Nc1ccccc1NC(=O)c1ccc(CNC(=O)OCc2cccnc2)cc1 + CNC(=O)c1ccc(Nc2nc(OC3CCCC3)c3c(-c4ccc5nc(C)oc5c4)c[nH]c3n2)c(OC)c1
- IC50 (second compound 0.0316 µM): 572 nM
- IC50 (second compound 0.1 µM): 293 nM
- IC50 (second compound 0.316 µM): 337 nM
- IC50 (second compound 1 µM): 141 nM
- IC50 (second compound 3.16 µM): 67.6 nM
- IC50 (second compound 10 µM): 50.7 nM
- viability, T/C (second compound 0.0316 µM, first compound 0.0316 µM): 115%
- viability, T/C (second compound 0.0316 µM, first compound 0.1 µM): 91.2%
- viability, T/C (second compound 0.0316 µM, first compound 0.316 µM): 64.9%
- viability, T/C (second compound 0.0316 µM, first compound 1 µM): 42%
- viability, T/C (second compound 0.0316 µM, first compound 3.16 µM): 3.29%
- viability, T/C (second compound 0.0316 µM, first compound 10 µM): 1.7%
- viability, T/C (second compound 0.1 µM, first compound 0.0316 µM): 70%
- viability, T/C (second compound 0.1 µM, first compound 0.1 µM): 66.3%
- viability, T/C (second compound 0.1 µM, first compound 0.316 µM): 45.7%
- viability, T/C (second compound 0.1 µM, first compound 1 µM): 30.2%
- viability, T/C (second compound 0.1 µM, first compound 3.16 µM): 3.46%
- viability, T/C (second compound 0.1 µM, first compound 10 µM): 5.63%
- viability, T/C (second compound 0.316 µM, first compound 0.0316 µM): 58.1%
- viability, T/C (second compound 0.316 µM, first compound 0.1 µM): 59.4%
- viability, T/C (second compound 0.316 µM, first compound 0.316 µM): 46%
- viability, T/C (second compound 0.316 µM, first compound 1 µM): 34.6%
- viability, T/C (second compound 0.316 µM, first compound 3.16 µM): 4.74%
- viability, T/C (second compound 0.316 µM, first compound 10 µM): 8.02%
- viability, T/C (second compound 1 µM, first compound 0.0316 µM): 64.6%
- viability, T/C (second compound 1 µM, first compound 0.1 µM): 50.3%
- viability, T/C (second compound 1 µM, first compound 0.316 µM): 41.3%
- viability, T/C (second compound 1 µM, first compound 1 µM): 28.1%
- viability, T/C (second compound 1 µM, first compound 3.16 µM): 4.08%
- viability, T/C (second compound 1 µM, first compound 10 µM): 0.99%
- viability, T/C (second compound 3.16 µM, first compound 0.0316 µM): 49.8%
- viability, T/C (second compound 3.16 µM, first compound 0.1 µM): 53.3%
- viability, T/C (second compound 3.16 µM, first compound 0.316 µM): 35.8%
- viability, T/C (second compound 3.16 µM, first compound 1 µM): 23.8%
- viability, T/C (second compound 3.16 µM, first compound 3.16 µM): 3.27%
- viability, T/C (second compound 3.16 µM, first compound 10 µM): 0.11%
- viability, T/C (second compound 10 µM, first compound 0.0316 µM): 57.1%
- viability, T/C (second compound 10 µM, first compound 0.1 µM): 38.4%
- viability, T/C (second compound 10 µM, first compound 0.316 µM): 29.6%
- viability, T/C (second compound 10 µM, first compound 1 µM): 22.6%
- viability, T/C (second compound 10 µM, first compound 3.16 µM): 2.77%
- viability, T/C (second compound 10 µM, first compound 10 µM): 0.3%

— PubChem BioAssay AID2060627 (Molecular Pharmacology Branch, DTP, NCI, 2025)
